In patent publication US20250025495A1, “Diagnosis and Treatment of Metabolic Syndrome with Magnesium Compositions” (priority 2023, published 2025):

Key:
[1] = burn patients, intravenous; cited from earlier work
[2] = gut dysbiosis induced with lectin-containing raw red kidney beans (RRKB); type: in vivo; conditions: by inducing heat shock factor 70
[3] = system: sulfate reducing bacteria (SRB); assay: SRB growth and hydrogen sulfide production with MgO; type: cell-based
Description: Total counts were obtained and represented as cells per ml. To account for the heavy right skew of the response variable, the analysis was conducted using a shifted log-transformation of the data and 90% confidence intervals were constructed using Cox's method. […] 90% confidence intervals were constructed using a parametric Bootstrap procedure based on a zero-inflated log-normal model where the parameters were estimated using maximum likelihood. The relationship between MgO dose level and the response (SRB Growth and H2S Concentration) was assessed with an F test based on a simple linear model. Data is presented as Mean±SEM. In this second in-vitro experiment, bacteria was grown with varying doses of MgO (0.5-2.0 mg/ml) in liquid media at 37° for 24 hours (n=3). Total counts were obtained and represented as cells per ml (FIG. 2A). To account for the heavy right skew of the response variable, the analysis was conducted using a shifted log-transformation of the data and 90% confidence intervals were constructed using Cox's method. Hydrogen sulfide production of SRB grown for 24 hours with varying concentrations of MgO as represented as parts per billion (ppb) (FIG. 2B). […] The relationship between MgO dose level and the response (SRB Growth and H2S Concentration) was assessed with an F test based on a simple linear model Data is presented as Mean±SEM.

Question: With NC(=O)CC[C@H](N)C(=O)O [glutamine] as the molecule, how does the “endotoxemia and increased intestinal permeability” value [1] read?
Answer: The value was “reversed”.

Question: And the “reversal of leaky gut and microbial translocation to the liver” value [2]?
Answer: The value was “able to reverse these effects”.

Question: For [Mg] [magnesium (Mg), magnesium], which “protection of the intestinal barrier by suppressing SRB and blocking production of hydrogen sulfide” value [3] is on record?
Answer: Its value is “effective in protecting the intestinal barrier”.

Question: With [O]=[Mg] [magnesium oxide] as the molecule, how does the “reversal of SRB effects (increased intestinal permeability, SRB proliferation, hydrogen sulfide production)” value [3] read?
Answer: Its value is “could be reversed”.
